Test results as given in patent publication US20140302113A1, “SYSTEMS, DEVICES, AND METHODS FOR EMBEDDING DRUG MOLECULES INTO MEDICAL CATHETERS OR TUBES” (priority 2011, published 2014).
Where two headings read alike, the source gives them in different places.

Experiments:
[1] = Foley catheter of Example 6
Method: The tip and the discharge end were discarded because they would not be expected to touch the patient's mucosa during the catheter use. […] The holes on both ends of each of the four catheter sections were blocked. Each of the four catheter sections was placed into a glass scintillation vial. A 0.15 M PBS solution with pH 7.4 was used as release medium. 20.7 mL of the medium was added into the vial to submerge the entire catheter section. The vial was closed tightly and a vinyl tape was wrapped around the cap to prevent solvent evaporation. The vial was placed into a 37° C. water bath with no shaking (mimicking human use), and the time was set as t=0. […] The catheter sections was removed from the vial, dried with a tissue, and placed into a new vial with the same amount of release medium. The new vial was then put back into the same water bath. This process was repeated at each time point. The samples were analyzed with HPLC.

[2] = format: physicochemical; settings: loaded catheter in Example 4
Method: 0.16 g of chlorhexidine diacetate was dissolved in 15.8 gram distilled water in a glass jar to form a clear solution. A section of a silicone coated latex Foley catheter (Bardia Foley Catheter, 16 Fr. Reorder No. 123516A, Lot MYUDR067), approximately 16 cm long, was placed into the jar and completely submerged in the solution. 0.08 g of a 10 wt % NaOH solution was added into the loading solution to increase the pH. […] The jar was closed with a cap and placed into an oven with temperatures cycling between about 62° C. and 68° C. The jar was kept in the oven for the next 120 hours and was shaken occasionally during the 120 hour heat treatment period.
The release rates of chlorhexidine from the loaded catheter in Example 4 were measured as follows. The catheter section was thoroughly washed and cut into two pieces, Section A (7.774 cm) and Section B (8.055 cm). Each section was submerged into 17 mL of a 0.15 M pH7.4 phosphate buffer held in a glass vial, which was placed into a 37° C. water bath. At each time point, the catheter section was retrieved from the glass vial, dried, and placed into another glass vial containing 17 mL of a fresh pH 7.4 phosphate buffer. The vial was then placed into the 37° C. water bath. The amount of chlorhexidine in the solution remaining in the first vial was measured with HPLC. This process was repeated at each time point. The average flux of chlorhexidine released from the catheter wall during the period between the current and previous time points was calculated by dividing the total amount of chlorhexidine in the solution (microgram) by the total surface area of the catheter section (cm^2) and by the length of time between the two time points (hour). The result is the amount of chlorhexidine released per square centimeter of the catheter wall per hour. The average chlorhexidine release flux and the average amount of chlorhexidine released from each square centimeter of the catheter wall per 24 hour period are listed in Table 3.

[3] = solution with pH about 7.4; cited from earlier work

[H]/N=C(\N/C(=N/[H])NCCCCCCNC(=N)NC(=N)Nc1ccc(Cl)cc1)Nc1ccc(Cl)cc1 [Chlorhexidine, chlorhexidine]
Average Released Chlorhexidine Amount/cm^2/24 hr ([1]; time 0.17 day): 2.2 micrograms
Average Released Chlorhexidine Amount/cm^2/24 hr ([1]; time 0.5 day): 3.8 micrograms
Average Released Chlorhexidine Amount/cm^2/24 hr ([1]; time 1.0 day): 2.8 micrograms
Average Released Chlorhexidine Amount/cm^2/24 hr ([1]; time 1.5 day): 3.4 micrograms
Average Released Chlorhexidine Amount/cm^2/24 hr ([1]; time 2 day): 3.2 micrograms
Average Released Chlorhexidine Amount/cm^2/24 hr ([1]; time 2.5 day): 2.4 micrograms
Average Released Chlorhexidine Amount/cm^2/24 hr ([1]; time 3.1 day): 1.6 micrograms
Average Released Chlorhexidine Amount/cm^2/24 hr ([1]; time 3.6 day): 1.5 micrograms
Average Released Chlorhexidine Amount/cm^2/24 hr ([1]; time 4 day): 1.7 micrograms
Average Released Chlorhexidine Amount/cm^2/24 hr ([1]; time 4.5 day): 1.0 micrograms
Average Released Chlorhexidine Amount/cm^2/24 hr ([1]; time 5 day): 1.3 micrograms
Average Released Chlorhexidine Amount/cm^2/24 hr ([1]; time 5.5 day): 1.0 micrograms
Average Released Chlorhexidine Amount/cm^2/24 hr ([1]; time 6.5 day): 0.6 micrograms
Average Released Chlorhexidine Amount/cm^2/24 hr ([1]; time 7 day): 0.7 micrograms
Average Released Chlorhexidine Amount/cm^2/24 hr ([1]; time 7.5 day): 0.6 micrograms
Average Released Chlorhexidine Amount/cm^2/24 hr ([1]; time 8 day): 0.5 micrograms
Average Released Chlorhexidine Amount/cm^2/24 hr ([1]; time 9 day): 0.5 micrograms
Average Released Chlorhexidine Amount/cm^2/24 hr ([1]; time 9.5 day): 0.5 micrograms
Average Released Chlorhexidine Amount/cm^2/24 hr ([1]; time 10 day): 0.5 micrograms
Average Released Chlorhexidine Amount/cm^2/24 hr ([1]; time 11 day): 0.5 micrograms
Average Released Chlorhexidine Amount/cm^2/24 hr ([1]; time 12 day): 0.5 micrograms
Average Released Chlorhexidine Amount/cm^2/24 hr ([1]; time 14 day): 0.4 micrograms
period with more than 1 microgram of chlorhexidine released from each square centimeter of wall surface per 24 hour [2]: at least 11 days
Average Chlorhexidine Amount/cm^2/24 hr ([2]; time 0.17 day): 218 micrograms
Average Chlorhexidine Amount/cm^2/24 hr ([2]; time 0.5 day): 43.9 micrograms
Average Chlorhexidine Amount/cm^2/24 hr ([2]; time 1.1 day): 21.5 micrograms
Average Chlorhexidine Amount/cm^2/24 hr ([2]; time 1.6 day): 13.1 micrograms
Average Chlorhexidine Amount/cm^2/24 hr ([2]; time 2 day): 10.2 micrograms
Average Chlorhexidine Amount/cm^2/24 hr ([2]; time 2.5 day): 4.5 micrograms
Average Chlorhexidine Amount/cm^2/24 hr ([2]; time 3 day): 4.3 micrograms
Average Chlorhexidine Amount/cm^2/24 hr ([2]; time 3.5 day): 2.6 micrograms
Average Chlorhexidine Amount/cm^2/24 hr ([2]; time 4.0 day): 3.3 micrograms
Average Chlorhexidine Amount/cm^2/24 hr ([2]; time 4.5 day): 3.2 micrograms
Average Chlorhexidine Amount/cm^2/24 hr ([2]; time 5 day): 3.2 micrograms
Average Chlorhexidine Amount/cm^2/24 hr ([2]; time 5.5 day): 2.9 micrograms
Average Chlorhexidine Amount/cm^2/24 hr ([2]; time 6 day): 2.6 micrograms
Average Chlorhexidine Amount/cm^2/24 hr ([2]; time 6.5 day): 2.2 micrograms
Average Chlorhexidine Amount/cm^2/24 hr ([2]; time 7 day): 1.8 micrograms
Average Chlorhexidine Amount/cm^2/24 hr ([2]; time 8 day): 1.2 micrograms
Average Chlorhexidine Amount/cm^2/24 hr ([2]; time 8.5 day): 1.4 micrograms
Average Chlorhexidine Amount/cm^2/24 hr ([2]; time 9.0 day): 1.7 micrograms
Average Chlorhexidine Amount/cm^2/24 hr ([2]; time 10.0 day): 2.0 micrograms
Average Chlorhexidine Amount/cm^2/24 hr ([2]; time 11 day): 1.1 micrograms
Average Chlorhexidine Amount/cm^2/24 hr ([2]; time 12 day): 0.8 micrograms

CC(=O)O.CC(=O)O.NC(=N\CCCCCC/N=C(N)/N=C(\N)Nc1ccc(Cl)cc1)/N=C(\N)Nc1ccc(Cl)cc1 [Chlorhexidine diacetate, chlorhexidine diacetate]
concentration that can be dissolved in water [3]: higher than 1.5 wt %
